# Key:
# [1] = Preventative Adjuvant Edema (acute anti-inflammatory effect in rats); assay type: in vivo, Male Sprague Dawley rats; conditions: 25 mg/kg, p.o.; for inhibition in vivo at 25 mg/kg: Rattus norvegicus, po, 72 h, read-out: Preventative Adjuvant Edema, percent inhibition
# Experimental: This test is a primary screen for anti-inflammatory drugs.
# Male Sprague Dawley rats (180-200 g) are used. The animals have free access to water but food is withdrawn 18 hours before testing.
# Drug Preparations and Administration:
# Freund's complete adjuvant is prepared by suspending 5 mg of killed and dried Mycobacterium butyricum (Difco) in 1 mL mineral oil. The test compounds are dissolved, of suspended in 0.5% Tween 80 in distilled water according to their solubility. For primary screening all drugs are administered by gastric lavage at the arbitrary dosage of 25 mg/kg, p.o. in a volume of 0.5 mL/100 g body weight to groups of 10 animals.
# The method is essentially that described by Wax et al, J. Pharmacol. Exp. Ther., 192, 166-171 (1975). Groups of rats are injected intradermally in the left hind paw with 0.1 mL of Freund's complete adjuvant. The test compound or vehicle is administered immediately before the adjuvant, 24 hours and 48 hours after the adjuvant (days 0, 1 and 2). The injected hind paw volume is measured before the injection of adjuvant and 24 hrs. after the last drug administration (day 3) by means of a plethysmometer (Buxco Electronics Inc.). The difference between the hind paw volume on day 0 and day 3 represents the edema volume. Etodolac (25 mg/kg, p.o.) is included as a positive control.
# The mean edema volume (expressed as mL±SEM) is calculated for each group and the percentage protection conferred by the drug is calculated: [formula] where c is the mean edema volume for the vehicle-treated (0.5% Tween 80 in distilled water) controls and t is the mean edema volume for the drug treated group.
# [2] = Drug Effects on Phenylbenzoquinone-induced Writhing in Mice; assay type: in vivo, Male Swiss albino mice; conditions: for inhibition in vivo at 25 mg/kg / ED50: Mus musculus, po; for inhibition in vivo at 25 mg/kg: read-out: Phenylquinone Writhing in Mice, percent inhibition; for ED50: value in parentheses, read-out: Phenylquinone Writhing in Mice, ED50
# Experimental: A further test used to determine the utility of the compounds of the present invention is designated: Drug Effects on Phenylbenzoquinone-induced Writhing in Mice
# The objective of this test is to determine the ability of test drugs to inhibit the nociceptive (pain) response of mice injected with a chemical irritant. This test is a primary screen for both peripheral and centrally acting analgesic drugs.
# Male Swiss albino mice (15-25 g). The animals are fasted for 18 hours prior to use but have free access to water.
# Drug Preparation and Administration:
# Drugs are dissolved or suspended according to their solubility in 0.5% Tween 80 in distilled water. They are administered by gastric gavage in a volume of 5 mL/kg. For primary screening all drugs are administered at the arbitrary dosage of 25 mg/kg, p.o. to a group of 10 mice.
# A modification of the method of Siegmund et al, Proc. Soc. Exp. Biol. Med., 95, 729-731 (1957) is used. Groups of 5 mice are dosed with the test compound or vehicle control. Sixty minutes later the animals are injected i.p. with 0.3 mL/20 g body weight of a 0.02% solution of phenylbenzoquinone (PBQ; 2-phenyl-1,4-benzoquinone) and placed in individual observation boxes. The number of writhing or abdominal squirming movements made by each mouse during the following 15 min. period is counted. The experiment is repeated with another group of 5 mice and the mean number of writhes per mouse for a group of 10 mice is calculated.
# Drug treated and vehicle-treated control groups are compared and the percentage protection conferred by the drug is calculated: [formula] where c=mean number of writhes in the control group where t=mean number of writhes in the test drug group
compound,measurement,setting,value
"C=CCC1COC(CC)(CC(=O)O)c2[nH]c3c(CC)cccc3c21 (single isomer, unassigned) [Example 11, 1,8-diethyl-1,3,4,9-tetrahydro-4-(2-propenyl)-pyrano[3,4-b]indole-1-acetic acid]",inhibition in vivo at 25 mg/kg,[1],55%
same,inhibition in vivo at 25 mg/kg,"[2]; 25 mg/kg, p.o.",11%
"C=CCC1COC(CC)(CC(=O)O)c2[nH]c3c(CCC)cccc3c21 (single isomer, unassigned) [Example 13, 1-ethyl-1,3,4,9-tetrahydro-4-(2-propenyl)-8-propyl-pyrano[3,4-b]indole-1-acetic acid]",inhibition in vivo at 25 mg/kg,[1],36%
same,inhibition in vivo at 25 mg/kg,"[2]; 25 mg/kg, p.o.",2%
"C=CCC1COC(CC)(CC(=O)O)c2[nH]c3ccccc3c21 (single isomer, unassigned) [Example 14]",inhibition in vivo at 25 mg/kg,[1],46%
same,inhibition in vivo at 25 mg/kg,"[2]; 25 mg/kg, p.o.",21%
"C=CCC1COC(CC)(CC(=O)O)c2[nH]c3ccccc3c21 (single isomer, unassigned) [Example 15]","Preventative Adjuvant Edema, percent inhibition",[1],30%
same,"Phenylquinone Writhing in Mice, percent inhibition","[2]; 25 mg/kg, p.o.",25%
"C=CCC1COC(CC)(CC(=O)O)c2[nH]c3c(C)c(Cl)ccc3c21 (single isomer, unassigned) [Example 17, 7-chloro-1-ethyl-1,3,4,9-tetrahydro-8-methyl-4-(2-propenyl)-pyrano[3,4-b]indole-1-acetic acid]",inhibition in vivo at 25 mg/kg,[1],44%
same,inhibition in vivo at 25 mg/kg,"[2]; 25 mg/kg, p.o.",11%
"CCC1(CC(=O)O)OCC(Cc2ccccc2)c2c1[nH]c1c(C)c(Cl)ccc21 (single isomer, unassigned) [Example 20, 7-chloro-1-ethyl-1,3,4,9-tetrahydro-8-methyl-4-(phenylmethyl)-pyrano[3,4-b]indole-1-acetic acid]","Preventative Adjuvant Edema, percent inhibition",[1],34%
same,inhibition in vivo at 25 mg/kg,"[2]; 25 mg/kg, p.o.",11%
"CCC1(CC(=O)O)OCC(Cc2ccccc2)c2c1[nH]c1ccc(Br)cc21 (single isomer, unassigned) [Example 25, 6-bromo-1-ethyl-1,3,4,9-tetrahydro-4-(phenylmethyl)-pyrano[3,4-b]indole-1-acetic acid]",ED50,[2],3.1 mg/kg
"CCC1(CC(=O)O)OCC(Cc2ccccc2)c2c1[nH]c1ccc(Br)cc21 (single isomer, unassigned) [Example 26, 6-bromo-1-ethyl-1,3,4,9-tetrahydro-4-(phenylmethyl)-pyrano[3,4-b]indole-1-acetic acid]",inhibition in vivo at 25 mg/kg,"[2]; 25 mg/kg, p.o.",10%
"C=CCC1COC(CC)(CC(=O)O)c2[nH]c3ccc(F)cc3c21 (single isomer, unassigned) [Example 27]",inhibition in vivo at 25 mg/kg,"[2]; 25 mg/kg, p.o.",24%
"CCC1(CC(=O)O)OCC(Cc2ccccc2)c2c1[nH]c1c(C)ccc(Cl)c21 (single isomer, unassigned) [Example 29, 5-chloro-1-ethyl-1,3,4,9-tetrahydro-8-methyl-4-(phenylmethyl)-pyrano[3,4-b]indole-1-acetic acid]",ED50,[2],3.2 mg/kg
"CCC1(CC(=O)O)OCC(Cc2ccccc2)c2c1[nH]c1cc(Cl)ccc21 (single isomer, unassigned) [Example 34, 7-chloro-1-ethyl-1,3,4,9-tetrahydro-4-(phenylmethyl)-pyrano[3,4-b]indole-1-acetic acid]",ED50,[2],1.4 mg/kg
"CCC1(CC(=O)O)OCC(Cc2ccc(OC)cc2)c2c1[nH]c1ccccc21 (single isomer, unassigned) [Example 41]",inhibition in vivo at 25 mg/kg,"[2]; 25 mg/kg, p.o.",30%
"CCC1(CC(=O)O)OCC(Cc2ccccc2)c2c1[nH]c1ccccc21 (single isomer, unassigned; isomer b) [Example 3, 1-Ethyl-1,3,4,9-tetrahydro-4-(phenylmethyl)-pyrano[3,4-b]indole-1-acetic Acid (Isomer B)]",inhibition in vivo at 25 mg/kg,"[2]; 25 mg/kg, p.o.",19%
"CCc1cccc2c3c([nH]c12)C(CC)(CC(=O)O)OCC3Cc1ccccc1 (single isomer, unassigned; isomer b) [Example 5, 1,8-Diethyl-1,3,4,9-tetrahydro-4-(phenylmethyl-pyrano[3,4-b]indole-1-aceticAcid (Isomer B)]","Preventative Adjuvant Edema, percent inhibition",[1],4%

# Reference: patent publication US4826994A, “Production of substituted 1,3,4,9-tetrahydropyrano(3,4-B)indole-1-acetic acids” (American Home Products Corporation, priority 1988, dated 1989)
